The assay deals with modified version of the GPR119 receptor (94% identity to human receptor) stably expressed in HEK-293 cells. Briefly: cAMP Production Assay (LANCE cAMP kit, TR-FRET). The assay is classed as cell-based. The note with it: for cAMP production in HEK-293 cells: HEK-293 cells expressing modified GPR119, test compounds 0.2 nM to 10 μM, one-hour incubation at ambient temperature; for Fold over baseline: increase in cAMP relative to basal levels, 1.5-fold or greater = agonist activity. How it is done: The assay utilized HEK-293 cells that stably express a modified version of the GPR119 receptor (94% identity to human receptor), under the control of a CMV promoter containing a tet-on element for tetracycline-inducible expression. GPR119 agonist-induced cyclic AMP (cAMP) production was measured in this cell line using the LANCE cAMP kit (Perkin Elmer, Waltham, Mass.). To generate a working stock of cells for the assay, cells were treated overnight with 1 μg/mL doxycycline at 37° C. in the presence of 5% CO2 to induce receptor expression. Cells were then harvested by enzymatic dissociation with 0.05% trypsin, resuspended in freezing medium (DMEM growth medium with 10% each of fetal bovine serum and DMSO), aliquoted and frozen at −80° C. On the day of the assay, frozen cells were thawed, washed 1× in PBS and resuspended in Hank's buffered salt solution (HBSS) containing 5 mM HEPES, 0.1% BSA and Alexa Fluor 647-conjugated anti-cAMP antibody (diluted 1:100). The cell suspension was then transferred to a Proxiplate Plus white 384-well assay plate (Perkin-Elmer) at 2000 cells/well. Test compounds at final concentrations ranging from 0.2 nM to 10 μM were added to the assay plate, followed by a one-hour incubation at ambient temperature (volume=10 μL/well). DMSO concentration was held constant at 0.5%. After incubation with test compounds, 10 μL of a detergent buffer containing a biotinylated cAMP/Europium-conjugated streptavidin complex (Europium-labeled cAMP tracer) were added to each well on the assay plate, followed by a 2-hour incubation at ambient temperature. During this incubation cAMP released from lysed cells competes with the Europium-labeled cAMP tracer for binding to the Alexa Fluor 647-conjugated antibody. […] Cellular cAMP levels were then determined by interpolation of raw signal data using a cAMP standard curve. Compounds were determined to have agonist activity if they stimulated a 1.5-fold or greater increase in cAMP relative to basal levels.

Take `CC(F)(F)c1noc(N2CCC(N3CCC[C@H](Nc4cc(F)c(S(C)(=O)=O)cc4F)C3=O)CC2)n1` [Example 61, (S)-3-((2,5-difluoro-4-(methylsulfonyl)phenyl)amino)-1′-(3-(1,1-difluoroethyl)-1,2,4-oxadiazol-5-yl)-[1,4′-bipiperidin]-2-one]: the “cAMP production in HEK-293 cells” value turned out to be 13.6 nmol and the Fold over baseline is on record as 2.2.
For `CS(=O)(=O)c1cc(F)c(O[C@@H]2CCN(C3CCN(c4noc(C(F)(F)F)n4)CC3)C2=O)cc1F` (single isomer, unassigned) [Example 66], in that order: 8.7 nmol and 2.7.
For `CS(=O)(=O)c1cc(F)c(N[C@H]2CCN(C3CCN(c4noc(C(F)(F)F)n4)CC3)C2=O)cc1F` [Example 23, (S)-3-(2,5-difluoro-4-(methylsulfonyl)phenylamino)-1-(1-(5-(trifluoromethyl)-1,2,4-oxadiazol-3-yl)piperidin-4-yl)pyrrolidin-2-one], in that order: 19.2 nmol and 3.6.
Turning to `CS(=O)(=O)c1ccc(O[C@H]2CCN(C3CCN(c4noc(C(F)(F)F)n4)CC3)C2=O)cn1` [Example 56, (S)-3-((6-(methylsulfonyl)pyridin-3-yl)oxy)-1-(1-(5-(trifluoromethyl)-1,2,4-oxadiazol-3-yl)piperidin-4-yl)pyrrolidin-2-one], the “cAMP production in HEK-293 cells” value came out at 21.1 nmol and the Fold over baseline turned out to be 3.3.
`CC(F)(F)c1nc(N2CCC(N3CCC[C@H](Nc4cc(F)c(S(C)(=O)=O)cc4F)C3=O)CC2)no1` [Example 48, (S)-3-(2,5-difluoro-4-(methylsulfonyl)phenylamino)-1′-(5-(1,1-difluoroethyl)-1,2,4-oxadiazol-3-yl)-1,4′-bipiperidin-2-one]: the “cAMP production in HEK-293 cells” value came out at 8.4 nmol and the Fold over baseline was found to be 2.3.
For `CC(C)c1noc(N2CCC(N3CC[C@H](Oc4ccc(S(C)(=O)=O)cc4F)C3=O)CC2)n1` [Example 2, (S)-3-(2-fluoro-4-(methylsulfonyl)phenoxy)-1-(1-(3-isopropyl-1,2,4-oxadiazol-5-yl)piperidin-4-yl)pyrrolidin-2-one], in that order: 27.4 nmol and 5.6.
On to `CS(=O)(=O)c1cc(F)c(O[C@H]2CCN(C3CCN(c4noc(C(F)(F)F)n4)CC3)C2=O)cc1F` [Example 27, (S)-3-(2,5-difluoro-4-(methylsulfonyl)phenoxy)-1-(1-(5-(trifluoromethyl)-1,2,4-oxadiazol-3-yl)piperidin-4-yl)pyrrolidin-2-one], for which the “cAMP production in HEK-293 cells” value was determined as 98.9 nmol and the Fold over baseline was determined as 5.1.
Consider `CS(=O)(=O)c1ccc(O[C@H]2CCN(C3CCN(c4noc(C(F)(F)F)n4)CC3)C2=O)c(F)c1` [Example 24, (S)-3-(2-fluoro-4-(methylsulfonyl)phenoxy)-1-(1-(5-(trifluoromethyl)-1,2,4-oxadiazol-3-yl)piperidin-4-yl)pyrrolidin-2-one], for which the “cAMP production in HEK-293 cells” value came out at 81.6 nmol and the Fold over baseline is listed as 4.4.
In the case of `CCC(F)(F)c1nc(N2CCC(N3CC[C@H](Nc4ccc(S(C)(=O)=O)cc4F)C3=O)CC2)no1` [Example 47, (S)-1-(1-(5-(1,1-difluoropropyl)-1,2,4-oxadiazol-3-yl)piperidin-4-yl)-3-(2-fluoro-4-(methylsulfonyl)-phenylamino)pyrrolidin-2-one], the “cAMP production in HEK-293 cells” value is 17.2 nmol and the Fold over baseline is on record as 2.5.
The like results for `CS(=O)(=O)c1ccc(N[C@H]2CCN(C3CCN(c4noc(N5CCCC5)n4)CC3)C2=O)c(F)c1` [Example 51] were, in that order, 16.3 nmol and 2.9.

For the origin of these results see US20130184257A1, “PIPERIDINYL-SUBSTITUTED LACTAMS AS GPR119 MODULATORS” (priority 2010, published 2013).
